The values below come from paper PMC5920614 (ACS Central Science, 2018).

Ends that are not written are not given here.

The nature of assay [1]: 31P NMR of peptide/lipid II mixtures. In kind it is binding. The conditions noted are these: dimethyl sulfoxide.
For assay [2] the following is noted: cited from earlier work.

In the case of “ITSISLCTPGC (also: bicyclic or more (positions not given here)) [nisin A]”, in assay [1] (lipid II mixed with peptide), the “direction of shift of the new 31P NMR resonances (in words)” value was “both new resonances arising in the nisin/lipid II spectra were shifted upfield”. In assay [1] (two new 31P resonances), the “binding to lipid II by 31P NMR (in words)” value is reported as “both compounds bind to lipid II”. The “pyrophosphate 31P peak shift upon nisin binding (in words)” value in assay [2] (31P NMR, dimethyl sulfoxide) is “the pyrophosphate peaks shift upfield upon nisin binding”. In addition, the “binding to lipid II (in words)” value in assay [2] is “binds to the small molecular weight metabolite lipid II”.
